Test results taken from patent US11324821B2, “Triterpene saponin analogues” (ADJUVANCE TECHNOLOGIES, INC., priority 2017, dated 2022).
“And” between values parts separate entries of the source, which are not always exact repeats. Identical values can stand only once.

Experiments:
Type in all cases: in vivo, mice
GB208_8 = test: INFγ ELISPOT, total splenocytes, responses to GB208_8; conditions: re-stimulation GB208_8 10 μg/ml, per mouse
Method: (§1) The impact of synthetic TQL-1055 (Compound I-4) on CD4 and CD8 T cell responses to peptides was tested in mice as a single adjuvant and in combination with Genocea Biosciences GEN-AS2 adjuvant and sGenocea Biosciences GEN-AS3 adjuvant according to the plan in the table below. The GEN-AS2 and GEN-AS3 adjuvant are TLR agonist-based adjuvant systems. Specific peptides tested include Genocea synthetic long peptides (SLPs) GB208_1, GB208_4, GB208_8, which are tumor-specific T cell antigens identified by neo-antigen screening, however the results are expected to replicate to other types of peptides. Combinations including an adjuvant composition with the SLPs were administered to mice via s.c. scruff according to the plan below. Injections were administered to groups according to the plan in the table below. Responses in mice were measured seven (7) or fourteen (14) days after the final injection.
(§2) T cell responses were measured by the following ELISPOT analyses: • 1. Total splenocytes: • a. Combined responses to GB208_1, _4, _8; re-stimulation with overlapping peptides (OLPs) at 10 μg/ml; • b. Responses to GB208_1; re-stimulation GB208_1 at 10 μg/ml; • c. Responses to GB208_4; re-stimulation GB208_4 at 10 μg/ml; • d. Responses to GB208_8; re-stimulation GB208_8 at 10 μg/ml; • 2. CD4 enriched: combined responses to GB208_1, _4, _8; re-stimulation with overlapping peptides at 20 μg/ml; and • 3. CD8 enriched: combined responses to GB208_1, _4, _8; re-stimulation with overlapping peptides at 20 μg/ml. Specific resulting data is shown in FIGS. 2-8 and in the tables below.
(§3) The values in Tables 3a-f results are spot forming units per 800,000 cells. A value of 2000 was used if spots exceeded the upper limit of detection. All groups had n=5, except groups 1, 2, and 3, which had four mice in each group.

CD8 enriched = test: ELISPOT, CD8 enriched cells, combined responses to GB208_1, _4, _8; conditions: re-stimulation overlapping peptides 20 μg/ml
Method: as §1, §2
(§4) The values in Tables 3g-h results are spot forming units per 500,000 cells. A value of 2000 was used if spots exceeded the upper limit of detection.

GB208_1, _4, _8 [1] = test: Endpoint titer, total IgG response to GB208_1, _4, _8; conditions: FIG. 7, total IgG endpoint titer
Method: FIG. 7 depicts data showing enpoint titer data for total IgG response to GB208_1, _4, _8 for each group tested in Example 2.
as §1

GB208_1 = test: INFγ ELISPOT, total splenocytes, responses to GB208_1; conditions: re-stimulation GB208_1 10 μg/ml, per mouse
Method: as §1, §2, §3

GB208_4 = test: INFγ ELISPOT, total splenocytes, responses to GB208_4; conditions: re-stimulation GB208_4 10 μg/ml, per mouse
Method: as §1, §2, §3

CD4 enriched = test: ELISPOT, CD4 enriched cells, combined responses to GB208_1, _4, _8; conditions: re-stimulation overlapping peptides 20 μg/ml
Method: as §1, §2, §4

GB208_1, _4, _8 [2] = test: INFγ ELISPOT, total splenocytes, combined responses to GB208_1, _4, _8 (overlapping peptides); conditions: re-stimulation OLPs 10 μg/ml, per mouse
Method: as §1, §2, §3

[3] = Group 2: no antigen, 50 μg TQL-1055, days 0, 7
[4] = Group 5: 150 μg SLPs + 10 μg TQL-1055, days 0, 7
[5] = Group 6: 150 μg SLPs + 25 μg TQL-1055, days 0, 7
[6] = Group 7: 150 μg SLPs + 50 μg TQL-1055, days 0, 7
[7] = Group 8: 150 μg SLPs + 100 μg TQL-1055, days 0, 7
[8] = Group 11: 150 μg SLPs + 50 μg TQL-1055, days 0, 14

With CC1O[C@@H](OC2C(O)[C@@H](NC(=O)CCCCCCCCCCC(=O)O)C(CO)O[C@H]2OC(=O)[C@]23CCC(C)(C)CC2C2=CCC4C5(C)CC[C@H](O)C(C)(C=O)C5CCC4(C)[C@]2(C)CC3O)C(O)C(O)[C@H]1O[C@@H]1OC[C@@H](O)C(O)C1O (stereo partly shown) [TQL-1055] the “SLP8-specific INFγ responses in splenocytes” value (from here on “SLP8-specific INFγ responses”) (GB208_8; [3]) was 0 spot forming units per 800,000 cells (3×) and 2 spot forming units per 800,000 cells, the “SLP8-specific INFγ responses” value (GB208_8; [4]) was 0 spot forming units per 800,000 cells (2×) and 13 spot forming units per 800,000 cells and 15 spot forming units per 800,000 cells and 16 spot forming units per 800,000 cells and the “SLP8-specific INFγ responses” value (GB208_8; [5]) was 21 spot forming units per 800,000 cells (2×) and 5 spot forming units per 800,000 cells and 53 spot forming units per 800,000 cells and 3 spot forming units per 800,000 cells. For the same compound, the “SLP8-specific INFγ responses” value (GB208_8; [6]) was 29 spot forming units per 800,000 cells and 5 spot forming units per 800,000 cells and 55 spot forming units per 800,000 cells and 286 spot forming units per 800,000 cells and 20 spot forming units per 800,000 cells, the “SLP8-specific INFγ responses” value (GB208_8; [7]) was 15 spot forming units per 800,000 cells and 0 spot forming units per 800,000 cells and 2 spot forming units per 800,000 cells and 29 spot forming units per 800,000 cells and 4 spot forming units per 800,000 cells and the “SLP8-specific INFγ responses” value (GB208_8; [8]) was 59 spot forming units per 800,000 cells and 33 spot forming units per 800,000 cells and 93 spot forming units per 800,000 cells and 164 spot forming units per 800,000 cells and 136 spot forming units per 800,000 cells. For the same compound, the “CD8 Responses, OLP pool SLP 1, 4, 8” value (CD8 enriched; [3]) was 2.5 spot forming units per 500,000 cells, the “CD8 Responses, OLP pool SLP 1, 4, 8” value (CD8 enriched; [4]) was 6.5 spot forming units per 500,000 cells and the “CD8 Responses, OLP pool SLP 1, 4, 8” value (CD8 enriched; [5]) was 5 spot forming units per 500,000 cells. For the same compound, the “CD8 Responses, OLP pool SLP 1, 4, 8” value (CD8 enriched; [6]) was 5.5 spot forming units per 500,000 cells, the “CD8 Responses, OLP pool SLP 1, 4, 8” value (CD8 enriched; [7]) was 6.5 spot forming units per 500,000 cells and the “CD8 Responses, OLP pool SLP 1, 4, 8” value (CD8 enriched; [8]) was 3.5 spot forming units per 500,000 cells. The “antibody response for antibodies specific to GB208_1, _4, and _8 compared with GEN-AS3” value (GB208_1, _4, _8 [1]) was “in line with or better than GEN-AS3”, the “SLP1-specific INFγ responses in splenocytes” value (shortened to “SLP1-specific INFγ responses”) (GB208_1; [3]) was 0 spot forming units per 800,000 cells and the “SLP1-specific INFγ responses” value (GB208_1; [4]) was 0 spot forming units per 800,000 cells (2×) and 4 spot forming units per 800,000 cells and 11 spot forming units per 800,000 cells and 5 spot forming units per 800,000 cells. For the same compound, the “SLP1-specific INFγ responses” value (GB208_1; [5]) was 3 spot forming units per 800,000 cells and 4 spot forming units per 800,000 cells and 25 spot forming units per 800,000 cells and 12 spot forming units per 800,000 cells and 30 spot forming units per 800,000 cells, the “SLP1-specific INFγ responses” value (GB208_1; [6]) was 3 spot forming units per 800,000 cells and 13 spot forming units per 800,000 cells and 4 spot forming units per 800,000 cells and 18 spot forming units per 800,000 cells and 25 spot forming units per 800,000 cells and the “SLP1-specific INFγ responses” value (GB208_1; [7]) was 0 spot forming units per 800,000 cells and 5 spot forming units per 800,000 cells and 7 spot forming units per 800,000 cells and 29 spot forming units per 800,000 cells and 3 spot forming units per 800,000 cells. The “SLP1-specific INFγ responses” value (GB208_1; [8]) was 3 spot forming units per 800,000 cells (2×) and 20 spot forming units per 800,000 cells and 94 spot forming units per 800,000 cells and 4 spot forming units per 800,000 cells, the “SLP4-specific INFγ responses in splenocytes” value (“SLP4-specific INFγ responses” below) (GB208_4; [3]) was 0 spot forming units per 800,000 cells and the “SLP4-specific INFγ responses” value (GB208_4; [4]) was 31 spot forming units per 800,000 cells and 135 spot forming units per 800,000 cells and 21 spot forming units per 800,000 cells and 183 spot forming units per 800,000 cells and 72 spot forming units per 800,000 cells. For the same compound, the “SLP4-specific INFγ responses” value (GB208_4; [5]) was 102 spot forming units per 800,000 cells and 70 spot forming units per 800,000 cells and 431 spot forming units per 800,000 cells and 22 spot forming units per 800,000 cells and 169 spot forming units per 800,000 cells, the “SLP4-specific INFγ responses” value (GB208_4; [6]) was 68 spot forming units per 800,000 cells and 23 spot forming units per 800,000 cells and 142 spot forming units per 800,000 cells and 93 spot forming units per 800,000 cells and 42 spot forming units per 800,000 cells and the “SLP4-specific INFγ responses” value (GB208_4; [7]) was 30 spot forming units per 800,000 cells and 37 spot forming units per 800,000 cells and 19 spot forming units per 800,000 cells and 76 spot forming units per 800,000 cells and 78 spot forming units per 800,000 cells. For the same compound, the “SLP4-specific INFγ responses” value (GB208_4; [8]) was 43 spot forming units per 800,000 cells and 96 spot forming units per 800,000 cells and 31 spot forming units per 800,000 cells and 258 spot forming units per 800,000 cells and 79 spot forming units per 800,000 cells, the “CD4 Responses, OLP pool SLP 1, 4, 8” value (CD4 enriched; [3]) was 0 spot forming units per 500,000 cells and the “CD4 Responses, OLP pool SLP 1, 4, 8” value (CD4 enriched; [4]) was 48.5 spot forming units per 500,000 cells. For the same compound, the “CD4 Responses, OLP pool SLP 1, 4, 8” value (CD4 enriched; [5]) was 149.5 spot forming units per 500,000 cells, the “CD4 Responses, OLP pool SLP 1, 4, 8” value (CD4 enriched; [6]) was 88.5 spot forming units per 500,000 cells and the “CD4 Responses, OLP pool SLP 1, 4, 8” value (CD4 enriched; [7]) was 28.5 spot forming units per 500,000 cells. The “CD4 Responses, OLP pool SLP 1, 4, 8” value (CD4 enriched; [8]) was 79 spot forming units per 500,000 cells, the “INFγ responses in splenocytes to SLPs 1, 4, 8” value (from here on “INFγ responses … 4, 8”) (GB208_1, _4, _8 [2]; [3]) was 0.5 spot forming units per 800,000 cells (2×) and 2.5 spot forming units per 800,000 cells and 2 spot forming units per 800,000 cells and the “INFγ responses … 4, 8” value (GB208_1, _4, _8 [2]; [4]) was 12.5 spot forming units per 800,000 cells and 20 spot forming units per 800,000 cells and 11 spot forming units per 800,000 cells and 115 spot forming units per 800,000 cells and 53 spot forming units per 800,000 cells. The “INFγ responses … 4, 8” value (GB208_1, _4, _8 [2]; [5]) was 104.5 spot forming units per 800,000 cells and 39 spot forming units per 800,000 cells and 338 spot forming units per 800,000 cells and 12.5 spot forming units per 800,000 cells and 167.5 spot forming units per 800,000 cells, the “INFγ responses … 4, 8” value (GB208_1, _4, _8 [2]; [6]) was 56 spot forming units per 800,000 cells and 32 spot forming units per 800,000 cells and 138 spot forming units per 800,000 cells and 139 spot forming units per 800,000 cells and 59.5 spot forming units per 800,000 cells and the “INFγ responses … 4, 8” value (GB208_1, _4, _8 [2]; [7]) was 42.5 spot forming units per 800,000 cells and 22 spot forming units per 800,000 cells and 17 spot forming units per 800,000 cells and 74.5 spot forming units per 800,000 cells and 73 spot forming units per 800,000 cells. For the same compound, the “INFγ responses … 4, 8” value (GB208_1, _4, _8 [2]; [8]) was 70 spot forming units per 800,000 cells and 85 spot forming units per 800,000 cells and 32.5 spot forming units per 800,000 cells and 319.5 spot forming units per 800,000 cells and 112 spot forming units per 800,000 cells.
